Where a name gives a salt, the structure may show the parent alone.
target: T1, Tau P301L (Homo sapiens, UniProt P10636, P618L); assay: In vitro tau degradation assay in CHOK1 Tau P301L cells (sarkosyl insoluble tau, WES); format: cell-based; settings: CHO-K1; CHOK1 Tau P301L cells; remaining tau in sarkosyl insoluble pellet; 48 hours with test compound at 1 μM, doxycycline removed for last 24 hours; relative to DMSO doxycycline control; read-out: Tau Protein Degradation effect at 1 μM
T1 construct: expressed in transfected cells
T1 sequence (P10636 1-441 isoform P10636-8 P301L): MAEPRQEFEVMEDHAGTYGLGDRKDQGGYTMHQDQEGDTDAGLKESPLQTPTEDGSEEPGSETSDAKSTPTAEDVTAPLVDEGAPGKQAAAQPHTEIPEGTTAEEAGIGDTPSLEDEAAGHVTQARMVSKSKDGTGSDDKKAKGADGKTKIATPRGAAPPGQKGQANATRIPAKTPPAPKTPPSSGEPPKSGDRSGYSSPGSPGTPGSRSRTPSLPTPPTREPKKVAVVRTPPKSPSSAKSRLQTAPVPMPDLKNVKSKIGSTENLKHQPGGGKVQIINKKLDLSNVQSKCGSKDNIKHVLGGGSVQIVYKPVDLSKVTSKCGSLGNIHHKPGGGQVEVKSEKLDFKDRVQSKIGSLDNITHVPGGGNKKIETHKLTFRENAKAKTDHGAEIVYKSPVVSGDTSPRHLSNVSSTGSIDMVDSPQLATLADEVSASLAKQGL
Summary of the method: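 T-Rex CHOK1 clone D1 with doxycycline-inducible (1 μg/ml) Tau P301L treated 48 h with compound at 1 μM, doxycycline removed for the final 24 h. Sarkosyl-insoluble tau quantified by WES capillary electrophoresis with Tau1 antibody, expressed relative to DMSO doxycycline control and binned as ≤50% or >50% remaining.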

Structure (SMILES) | remaining activity at 1 µM [%]
O=C1CCC(N2C(=O)c3ccc(N4CCC(CN5CCC(O[C@H]6C[C@H](Oc7ccc8c9cnccc9n(C(F)F)c8c7)C6)CC5)CC4)cc3C2=O)C(=O)N1 (some centres unmarked) [Compound 605, 5-(4-((4-((1r,3r)-3-((5-(difluoromethyl)-5H-pyrido[4,3-b]indol-7-yl)oxy)cyclobutoxy)piperidin-1-yl)methyl)piperidin-1-yl)-2-(2,6-dioxopiperidin-3-yl)isoindoline-1,3-dione] | < 50
O=C1CCC(N2C(=O)c3ccc(N4CCN(CCOCCN5CCCc6cc(-c7ccc8c9cnccc9n(C(F)F)c8c7)cc(F)c65)CC4)cc3C2=O)C(=O)N1 (centres unmarked) [Compound 611, 5-(4-(2-(2-(6-(5-(difluoromethyl)-5H-pyrido[4,3-b]indol-7-yl)-8-fluoro-3,4-dihydroquinolin-1(2H)-yl)ethoxy)ethyl)piperazin-1-yl)-2-(2,6-dioxopiperidin-3-yl)isoindoline-1,3-dione] | < 50
CC(C)N(C1CCN(c2ncc(-c3ccc4c5cnccc5n(C(F)F)c4c3)cc2F)CC1)[C@H]1C[C@H](Oc2ccc3c(c2)C(=O)N(C2CCC(=O)NC2=O)C3=O)C1 (some centres unmarked) [Compound 638] | < 50
COc1ccc2nc(/C=C/C=C/c3ccc(OCCOCCOCCOCCOc4ccc5c(c4)C(=O)N(C4CCC(=O)NC4=O)C5=O)nc3)sc2c1 (centres unmarked) [Compound 628, 2-(2,6-dioxopiperidin-3-yl)-5-(2-(2-(2-(2-((5-((1E,3E)-4-(6-methoxybenzo[d]thiazol-2-yl)buta-1,3-dien-1-yl)pyridin-2-yl)oxy)ethoxy)ethoxy)ethoxy)ethoxy) isoindoline-1,3-dione] | < 50

same assay, conditions: CHO-K1; remaining tau protein in sarkosyl insoluble pellet; CHOK1 Tau P301L cells treated 48 hours with test compound at 1 μM, doxycycline removed for the last 24 hours; relative to DMSO doxycycline control; read-out: Tau Protein Degradation effect at 1 μM

Structure (SMILES) | remaining activity at 1 µM [%]
O=C1CCC(N2C(=O)c3ccc(N4CCN(CCC5CCN(c6ncc(-c7ccc8c9cnccc9n(C(F)F)c8c7)cc6C(F)(F)F)CC5)CC4)cc3C2=O)C(=O)N1 (centres unmarked) [Compound 489, 5-[4-[2-[1-[5-[5-(difluoromethyl)pyrido[4,3-b]indol-7-yl]-3-(trifluoromethyl)-2-pyridyl]-4-piperidyl]ethyl]piperazin-1-yl]-2-(2,6-dioxo-3-piperidyl)isoindoline-1,3-dione trifluroacetate] | < 50
O=C1CCC(N2C(=O)c3ccc(OCCCCCN4CCC(OC5CN(c6ccc(-c7ccn8c(n7)nc7ccccc78)cn6)C5)CC4)cc3C2=O)C(=O)N1 (centres unmarked) [Compound 450, 2-(2,6-dioxo-3-piperidyl)-5-[5-[4-[1-(5-pyrimido[1,2-a]benzimidazol-2-yl-2-pyridyl)azetidin-3-yl]oxy-1-piperidyl]pentoxy]isoindoline-1,3-dione formate] | < 50
Cc1ncsc1-c1ccc([C@H](C)NC(=O)[C@@H]2C[C@@H](O)CN2C(=O)[C@@H](NC(=O)COCCOCCOCCOCCOc2ccc3cc(-n4ccc5ccncc54)ncc3c2)C(C)(C)C)cc1 [Compound 375, (2S,4R)-1-((S)-17-((3-(1H-pyrrolo[2,3-c]pyridin-1-yl)isoquinolin-7-yl)oxy)-2-(tert-butyl)-4-oxo-6,9,12,15-tetraoxa-3-azaheptadecanoyl)-4-hydroxy-N-((S)-1-(4-(4-methylthiazol-5-yl)phenyl)ethyl) pyrrolidine-2-carboxamide] | > 50
Cc1ncsc1-c1ccc([C@H](C)NC(=O)[C@@H]2C[C@@H](O)CN2C(=O)C(c2cc(OCCOCCOCCOc3ccc(-c4ccc5c(c4)[nH]c4ccncc45)cn3)no2)C(C)C)cc1 (stereo in doubt) [Compound 395, (2S,4R)-1-((S)-2-(3-(2-(2-(2-((5-(5H-pyrido[4,3-b]indol-7-yl)pyridin-2-yl)oxy)ethoxy)ethoxy)ethoxy)isoxazol-5-yl)-3-methylbutanoyl)-4-hydroxy-N-((S)-1-(4-(4-methylthiazol-5-yl)phenyl)ethyl) pyrrolidine-2-carboxamide] | > 50
CC(C)N(CC1CCN(c2ncc(-c3ccc4c5cnccc5n(C(F)F)c4c3)cc2F)CC1)[C@H]1C[C@H](Oc2ccc3c(c2)C(=O)N(C2CCC(=O)NC2=O)C3=O)C1 (some centres unmarked) [Compound 581, 5-((1r,3r)-3-(((1-(5-(5-(difluoromethyl)-5H-pyrido[4,3-b]indol-7-yl)-3-fluoropyridin-2-yl)piperidin-4-yl)methyl)(isopropyl)amino)cyclobutoxy)-2-(2,6-dioxopiperidin-3-yl)isoindoline-1,3-dione] | < 50
Cn1c2ccncc2c2ccc(-c3ccc(O[C@H]4C[C@H](CN5CCC(CC6CCN(c7ccc8c(c7)C(=O)N(C7CCC(=O)NC7=O)C8=O)CC6)CC5)C4)nc3)cc21 (some centres unmarked) [Compound 485, 2-(2,6-dioxopiperidin-3-yl)-5-(4-((1-(((1r,3r)-3-((5-(5-methyl-5H-pyrido[4,3-b]indol-7-yl)pyridin-2-yl)oxy)cyclobutyl)methyl)piperidin-4-yl)methyl)piperidin-1-yl)isoindoline-1,3-dione] | < 50
Cc1ncsc1-c1ccc([C@H](C)NC(=O)[C@@H]2C[C@@H](O)CN2C(=O)[C@H](c2cc(OCCN3CCC(O[C@H]4C[C@H](Oc5ccc(-c6ccc7c8cnccc8n(C)c7c6)cn5)C4)CC3)no2)C(C)C)cc1 [Compound 399, (2S,4R)-4-hydroxy-1-((S)-3-methyl-2-(3-(2-(4-((1r,3S)-3-((5-(5-methyl-5H-pyrido[4,3-b]indol-7-yl)pyridin-2-yl)oxy)cyclobutoxy)piperidin-1-yl)ethoxy)isoxazol-5-yl)butanoyl)-N-((S)-1-(4-(4-methylthiazol-5-yl)phenyl)ethyl) pyrrolidine-2-carboxamide] | > 50
Cc1ncsc1-c1ccc([C@H](C)NC(=O)[C@@H]2C[C@@H](O)CN2C(=O)[C@@H](c2cc(OCCN3CCC(O[C@H]4C[C@H](Oc5ccc(-c6ccc7c8cnccc8n(C)c7c6)cn5)C4)CC3)no2)C(C)C)cc1 [Compound 398, (2S,4R)-4-hydroxy-1-((R)-3-methyl-2-(3-(2-(4-((1r,3R)-3-((5-(5-methyl-5H-pyrido[4,3-b]indol-7-yl)pyridin-2-yl)oxy)cyclobutoxy)piperidin-1-yl)ethoxy)isoxazol-5-yl)butanoyl)-N-((S)-1-(4-(4-methylthiazol-5-yl)phenyl)ethyl) pyrrolidine-2-carboxamide] | < 50
O=C1CCC(N2C(=O)c3ccc(C#CCN4CCN(CCC5CCN(c6ccc7c8cnccc8n(C(F)F)c7c6)CC5)CC4)cc3C2=O)C(=O)N1 (centres unmarked) [Compound 586, 5-(3-(4-(2-(1-(5-(difluoromethyl)-5H-pyrido[4,3-b]indol-7-yl)piperidin-4-yl)ethyl)piperazin-1-yl)prop-1-yn-1-yl)-2-(2,6-dioxopiperidin-3-yl)isoindoline-1,3-dione] | < 50
O=C1CCC(N2C(=O)c3ccc(OCCOCCOCCN4CCC(c5ccc6c(c5)[nH]c5ccncc56)CC4)cc3C2=O)C(=O)N1 (centres unmarked) [Compound 431] | > 50
Cn1c2ccncc2c2ccc(-c3ccc(O[C@H]4C[C@H](Oc5ccc(C#CCNCCCc6ccc7c(c6)CN(C6CCC(=O)NC6=O)C7=O)nc5)C4)nc3)cc21 (some centres unmarked) [Compound 346, 3-(5-(3-((3-(5-((1r,3r)-3-((5-(5-methyl-5H-pyrido[4,3-b]indol-7-yl)pyridin-2-yl)oxy)cyclobutoxy)pyridin-2-yl)prop-2-yn-1-yl)amino)propyl) 1-oxoisoindolin-2-yl)piperidine-2,6-dione] | > 50
CC(C)N(CCCCOc1ccc2c(c1)C(=O)N(C1CCC(=O)NC1=O)C2=O)[C@H]1CC[C@H](O[C@H]2C[C@H](Oc3ccc(-c4ccc5c6cnccc6n(C)c5c4)cn3)C2)CC1 (stereo partly drawn) [Compound 436, 2-(2,6-dioxopiperidin-3-yl)-5-(4-(isopropyl((1R,4r)-4-((1r,3R)-3-((5-(5-methyl-5H-pyrido[4,3-b]indol-7-yl)pyridin-2-yl)oxy)cyclobutoxy)cyclohexyl)amino)butoxy)isoindoline-1,3-dione] | < 50
Cc1ccc(-c2cn3ccc(N(C)CCOCCOCCOc4ccc5c(c4)C(=O)N(C4CCC(=O)NC4=O)C5=O)cc3n2)cc1 (centres unmarked) [Compound 463, 2-(2,6-dioxopiperidin-3-yl)-5-(2-(2-(2-(methyl(2-(p-tolyl)imidazo[1,2-a]pyridin-7-yl)amino)ethoxy)ethoxy)ethoxy)isoindoline-1,3-dione] | < 50
Cn1c2ccncc2c2ccc(-c3ccc(O[C@H]4C[C@H](Oc5ccc(C#CCN6CC(Oc7ccc8c(c7)CN(C7CCC(=O)NC7=O)C8=O)C6)nc5)C4)nc3)cc21 (some centres unmarked) [Compound 340, 3-(5-((1-(3-(5-((1r,3r)-3-((5-(5-methyl-5H-pyrido[4,3-b]indol-7-yl)pyridin-2-yl)oxy)cyclobutoxy)pyridin-2-yl)prop-2-yn-1-yl)azetidin-3-yl)oxy)-1-oxoisoindolin-2-yl)piperidine-2,6-dione] | > 50
O=C1CCC(N2C(=O)c3ccc(N4CCN(CCC5CCN(c6ccc(-c7ccc8c(c7)[nH]c7ccncc78)cn6)CC5)CC4)cc3C2=O)C(=O)N1 (centres unmarked) [Compound 400, 2-(2,6-dioxopiperidin-3-yl)-5-(4-[2-[1-(5-[5H-pyrido[4,3-b]indol-7-yl]pyridin-2-yl)piperidin-4-yl]ethyl]piperazin-1-yl)isoindole-1,3-dione] | < 50
Cn1c2ccncc2c2ccc(C3CCN(CCC4CCN(CC5CCN(c6ccc7c(c6)C(=O)N(C6CCC(=O)NC6=O)C7=O)CC5)CC4)CC3)cc21 (centres unmarked) [Compound 502, 2-(2,6-dioxopiperidin-3-yl)-5-(4-((4-(2-(4-(5-methyl-5H-pyrido[4,3-b]indol-7-yl)piperidin-1-yl)ethyl)piperidin-1-yl)methyl)piperidin-1-yl)isoindoline-1,3-dione] | < 50

— patent US11912699B2, “Tau-protein targeting compounds and associated” (Arvinas Operations, Inc., priority 2019, dated 2024)
